Measurements reported in patent publication US9968645B2, “Method for enhanced production of morinda metabolites” (priority 2014, dated 2018).

Tested on: DSS-induced ulcerative colitis in mouse
Assay: Acute mouse ulcerative colitis model, colitis induced by 4% dextran sulfate (DSS)
Format: in vivo
Conditions: Male BalbC mice, 20 mg/kg co-fed with 4% DSS for 7 days
Experimental: The therapeutic efficacy of the methanolic extracts of MO hairy roots was examined in an acute mouse ulcerative colitis model. The mouse ulcerative colitis model is used to predict ulcerative colitis and treatment of that disease in human subjects (e.g. Low et. al., 2013). Male BalbC mice in groups of 10 were housed in Good Animal Care Protocol conditions. Colitis was induced by 4% dextran sulfate (DSS). In a pilot dosing study (50 mg/kg, 150 mg/kg, and 450 mg/kg) of MO root extracts on UC, an unexpected finding was made. […] Subsequently the effect of drug treatment on colitis was investigated by co-feeding the mice extracts from MO native plants or hairy root culture at doses below 50 mg/kg along with 4% DSS for 7 days. 5-amino-salicylic acid (5-ASA) was used as a positive treatment control. Animals were weighed, and stool consistency was monitored daily to determine the disease activity index (DAD. All animals were anesthetized and the colons were separated from the proximal rectum, and the colon length was measured between the ileo-cecal junction and the proximal rectum. [table]

Nc1ccc(O)c(C(=O)O)c1 [5-ASA, 5-amino-salicylic acid]
DAI (disease activity index): 3.0 ± 2.22
Length of colon: 6.77 ± 0.19 cm
% of mice developing ulcer (including disruption of colonic crypts and damaged glandular structures): 60%
